Laboratory results reported in US12653814B2, “Benzimidazolone-based cinnamamide derivative as TRPV1 antagonist and pharmaceutical composition for treatment or prevention of pain containing same as active ingredient” (JMACKEM CO., LTD, priority 2020, dated 2026).
pIC50: −log10 of the molar value.

Columns and labels:
[1] = target: T1, human TRPV1 (hTRPV1) (Homo sapiens, UniProt Q8NER1); assay: Ca2+ influx assay, antagonism against capsaicin in hTRPV1-HEK recombinant cells; format: cell-based; conditions: capsaicin 10 nM as activator, Fluo4-NW fluorescence, read-out: hTRPV1 IC50 [cap]
T1 construct: host or cells: HEK (PrecisION hTRPV1-HEK recombinant cell line)
T1 sequence (Q8NER1 whole entry): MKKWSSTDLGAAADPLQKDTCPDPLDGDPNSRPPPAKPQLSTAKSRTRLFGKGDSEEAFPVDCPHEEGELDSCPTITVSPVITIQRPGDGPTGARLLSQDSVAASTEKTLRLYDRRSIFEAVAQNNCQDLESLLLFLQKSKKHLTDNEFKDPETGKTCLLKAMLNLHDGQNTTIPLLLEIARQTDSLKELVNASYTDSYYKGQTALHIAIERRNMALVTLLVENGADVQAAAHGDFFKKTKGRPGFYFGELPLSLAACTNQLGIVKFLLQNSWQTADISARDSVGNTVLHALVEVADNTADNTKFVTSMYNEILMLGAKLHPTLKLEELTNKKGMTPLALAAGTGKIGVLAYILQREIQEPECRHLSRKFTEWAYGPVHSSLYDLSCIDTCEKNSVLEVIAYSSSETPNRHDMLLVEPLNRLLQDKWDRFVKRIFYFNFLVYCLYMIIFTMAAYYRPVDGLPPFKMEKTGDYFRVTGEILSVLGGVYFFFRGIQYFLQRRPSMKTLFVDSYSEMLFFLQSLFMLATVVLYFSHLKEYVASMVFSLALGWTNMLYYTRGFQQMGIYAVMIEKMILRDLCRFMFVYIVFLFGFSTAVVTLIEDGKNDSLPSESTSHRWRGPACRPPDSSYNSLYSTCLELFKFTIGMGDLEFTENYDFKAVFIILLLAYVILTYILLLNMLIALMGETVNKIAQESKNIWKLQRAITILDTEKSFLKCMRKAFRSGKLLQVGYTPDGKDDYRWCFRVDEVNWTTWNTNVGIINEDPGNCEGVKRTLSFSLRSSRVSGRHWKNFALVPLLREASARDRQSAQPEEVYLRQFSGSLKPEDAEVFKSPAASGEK

[2] = target: T1, human TRPV1 (hTRPV1); assay: Evaluation of human pH inhibitory activity in hTRPV1-HEK recombinant cells; format: cell-based; conditions: inhibition of activation at final pH 6.0, test substance 3 μM
Protocol: Evaluation of Human pH Inhibitory Activity
PrecisION™ hTRPV1-HEK recombinant cells (CYL3063) were purchased from Millipore and used. After culturing the above cells under the conditions of 37° C. and 5% CO2, the cells were inoculated in a 96-well plate at the density of 5×10^4 cells/well, followed by culture for 16 hours. Then, the medium was removed and 100 uL of a staining solution was put into each well, followed by culture for 30 minutes under the conditions of 37° C. and 5% CO2. After 30 minutes, all of the existing staining solution was removed and replaced with 100 uL of HBSS. Thereafter, the cells were acclimatized to room temperature for 15 minutes, and the test substances (example compounds and comparative example compounds of the present invention) were added to each well, followed by culture at room temperature for 15 minutes. Then, the final pH was adjusted to 6.0 using MES, and fluorescence was measured (ex485/em535). In the pH assay, the efficacy of the drug was evaluated using BCTC as a TRPV1 antagonist.

Row | SMILES | pIC50 [1] | hTRPV1 pH (%, 3 μM) [2] [%]
1 | O=C(/C=C/c1ccc(C(F)F)nc1OCC1CC1)Nc1cccc2[nH]c(=O)[nH]c12 [Example 21, (E)-3-(2-(cyclopropylmethoxy)-6-(difluoromethyl)pyridin-3-yl)-N-(2-oxo-2,3-dihydro-1H-benzo[d]imidazol-4-yl)acrylamide] | 7.58 | 79.89
2 | O=C(/C=C/c1ccc(C(F)(F)F)nc1OCC1CCCC1)Nc1cccc2[nH]c(=O)[nH]c12 [Example 26, (E)-3-(2-(cyclopentylmethoxy)-6-(trifluoromethyl)pyridin-3-yl)-N-(2-oxo-2,3-dihydro-1H-benzo[d]imidazol-4-yl)acrylamide] | 7.26 | 95.11
3 | CC(C)CSc1nc(C(F)(F)F)ccc1/C=C/C(=O)Nc1cccc2[nH]c(=O)[nH]c12 [Example 27, (E)-3-(2-(isobutylthio)-6-(trifluoromethyl)pyridin-3-yl)-N-(2-oxo-2,3-dihydro-1H-benzo[d]imidazol-4-yl)acrylamide] | 7.39 | 78.45
4 | O=C(/C=C/c1ccc(C(F)(F)F)nc1-c1cccc(Cl)c1)Nc1cccc2[nH]c(=O)[nH]c12 [Example 31, (E)-3-(2-(3-chlorophenyl)-6-(trifluoromethyl)pyridin-3-yl)-N-(2-oxo-2,3-dihydro-1H-benzo[d]imidazol-4-yl)acrylamide] | 7.58 | 82.34
5 | CC(C)c1cccc(-c2nc(C(F)(F)F)ccc2/C=C/C(=O)Nc2cccc3[nH]c(=O)[nH]c23)c1 [Example 32, (E)-3-(2-(3-isopropylphenyl)-6-(trifluoromethyl)pyridin-3-yl)-N-(2-oxo-2,3-dihydro-1H-benzo[d]imidazol-4-yl)acrylamide] | 7.62 | 67.88
6 | O=C(/C=C/c1ccc(C(F)(F)F)nc1-c1ccc(F)c(Cl)c1)Nc1cccc2[nH]c(=O)[nH]c12 [Example 33, (E)-3-(2-(3-chloro-4-fluorophenyl)-6-(trifluoromethyl)pyridin-3-yl)-N-(2-oxo-2,3-dihydro-1H-benzo[d]imidazol-4-yl)acrylamide] | 7.56 | 69.89
7 | O=C(/C=C/c1ccc(C(F)(F)F)nc1-c1ccc(F)cc1)Nc1cccc2[nH]c(=O)[nH]c12 [Example 34, (E)-3-(2-(4-fluorophenyl)-6-(trifluoromethyl)pyridin-3-yl)-N-(2-oxo-2,3-dihydro-1H-benzo[d]imidazol-4-yl)acrylamide] | 7.96 | 37.85
8 | CC(C)COc1cc(C(F)(F)F)ccc1/C=C/C(=O)Nc1cccc2[nH]c(=O)[nH]c12 [Example 42, (E)-3-(2-isobutoxy-4-(trifluoromethyl)phenyl)-N-(2-oxo-2,3-dihydro-1H-benzo[d]imidazol-4-yl)acrylamide] | 7.45 | 78.89
9 | CC(C)(C)c1ccc(/C=C/C(=O)Nc2cccc3[nH]c(=O)[nH]c23)c(OCC2CC2)c1 [Example 45, (E)-3-(4-(tert-butyl)-2-(cyclopropylmethoxy)phenyl)-N-(2-oxo-2,3-dihydro-1H-benzo[d]imidazol-4-yl)acrylamide] | 7.10 | 48.71
10 | O=C(/C=C/c1cc(C(F)(F)F)nn1-c1cccc(Cl)c1)Nc1cccc2[nH]c(=O)[nH]c12 [Example 47, (E)-3-(1-(3-chlorophenyl)-3-(trifluoromethyl)-1H-pyrazol-5-yl)-N-(2-oxo-2,3-dihydro-1H-benzo[d]imidazol-4-yl)acrylamide] | 7.80 | 37.26
11 | Cc1cccc(-n2nc(C(F)(F)F)cc2/C=C/C(=O)Nc2cccc3[nH]c(=O)[nH]c23)c1 [Example 48, (E)-N-(2-oxo-2,3-dihydro-1H-benzo[d]imidazol-4-yl)-3-(1-(m-tolyl)-3-(trifluoromethyl)-1H-pyrazol-5-yl)acrylamide] | 8.00 | 29.43

Other lines, results leading:

Row | pIC50 [1] | hTRPV1 pH (%, 3 μM) [2] [%] | SMILES
12 | 7.24 | 83.20 | O=C(/C=C/c1ccc(C(F)(F)Cl)nc1OCC1CC1)Nc1cccc2[nH]c(=O)[nH]c12 [Example 17, (E)-3-(6-(chlorodifluoromethyl)-2-(cyclopropylmethoxy)pyridin-3-yl)-N-(2-oxo-2,3-dihydro-1H-benzo[d]imidazol-4-yl)acrylamide]
13 | 7.27 | 86.79 | CC1(c2ccc(/C=C/C(=O)Nc3cccc4[nH]c(=O)[nH]c34)c(OCC3CC3)n2)CC1 [Example 20, (E)-3-(2-(cyclopropylmethoxy)-6-(1-methylcyclopropyl)pyridin-3-yl)-N-(2-oxo-2,3-dihydro-1H-benzo[d]imidazol-4-yl)acrylamide]
14 | 7.51 | 90.86 | CC(F)(F)c1ccc(/C=C/C(=O)Nc2cccc3[nH]c(=O)[nH]c23)c(OCC2CC2)n1 [Example 22, (E)-3-(2-(cyclopropylmethoxy)-6-(1,1-difluoroethyl)pyridin-3-yl)-N-(2-oxo-2,3-dihydro-1H-benzo[d]imidazol-4-yl)acrylamide]
15 | 7.47 | 89.76 | O=C(/C=C/c1ccc(C(F)(F)F)nc1OCC1CCC1)Nc1cccc2[nH]c(=O)[nH]c12 [Example 25, (E)-3-(2-(cyclobutylmethoxy)-6-(trifluoromethyl)pyridin-3-yl)-N-(2-oxo-2,3-dihydro-1H-benzo[d]imidazol-4-yl)acrylamide]
16 | 7.85 | 48.62 | O=C(/C=C/c1ccc(C(F)(F)F)nc1-c1cccc(F)c1)Nc1cccc2[nH]c(=O)[nH]c12 [Example 30, (E)-3-(2-(3-fluorophenyl)-6-(trifluoromethyl)pyridin-3-yl)-N-(2-oxo-2,3-dihydro-1H-benzo[d]imidazol-4-yl)acrylamide]
17 | 7.93 | 95.87 | O=C(/C=C/c1ccc(C(F)(F)F)nc1-c1cccs1)Nc1cccc2[nH]c(=O)[nH]c12 [Example 35, (E)-N-(2-oxo-2,3-dihydro-1H-benzo[d]imidazol-4-yl)-3-(2-(thiophen-2-yl)-6-(trifluoromethyl)pyridin-3-yl)acrylamide]
18 | 7.96 | 100.46 | O=C(/C=C/c1ccc(C(F)(F)F)nc1-c1ccco1)Nc1cccc2[nH]c(=O)[nH]c12 [Example 36, (E)-3-(2-(furan-2-yl)-6-(trifluoromethyl)pyridin-3-yl)-N-(2-oxo-2,3-dihydro-1H-benzo[d]imidazol-4-yl)acrylamide]
19 | 7.45 | 67.89 | CC(C)(C)C#Cc1nc(C(F)(F)F)ccc1/C=C/C(=O)Nc1cccc2[nH]c(=O)[nH]c12 [Example 39, (E)-3-(2-(3,3-dimethyl-1-butyn-1-yl)-6-(trifluoromethyl)pyridin-3-yl)-N-(2-oxo-2,3-dihydro-1H-benzo[d]imidazol-4-yl)acrylamide]
20 | 7.71 | 87.68 | O=C(/C=C/c1ccc(C(F)(F)F)cc1OCC1CC1)Nc1cccc2[nH]c(=O)[nH]c12 [Example 43, (E)-3-(2-(cyclopropylmethoxy)-4-(trifluoromethyl)phenyl)-N-(2-oxo-2,3-dihydro-1H-benzo[d]imidazol-4-yl)acrylamide]
21 | 7.14 | 57.38 | O=C(/C=C/c1ccc(C2CC2)cc1OCC1CC1)Nc1cccc2[nH]c(=O)[nH]c12 [Example 46, (E)-3-(4-cyclopropyl-2-(cyclopropylmethoxy)phenyl)-N-(2-oxo-2,3-dihydro-1H-benzo[d]imidazol-4-yl)acrylamide]
